Assay results: patent USRE38169E1, “Hyperstabilizing antisense nucleic acid binding agents” (priority 1993, dated 2003)

How the values were obtained:
[1] = test system: mRNA of a fragment of the env gene of EIAV; assay: In vitro translation (wheat-germ extract, 35S-methionine); type: biochemical
Protocol: The in vitro translation studies were performed as follows. A fragment of DNA from the env gene of EIAV was transcribed with an SP-6 polymerase kit, and the resulting mRNA (approximately 600 bases long) was capped and isolated. The transcribed fragment included the target sequence 5′-[…]-3′ (SEQ ID NO. 3) (the CC-1065 binding site is underlined). The corresponding antisense sequence (using normal phosphodiester chemistry) was 5′-[…]-3′ (SEQ ID NO. 4). Translation was performed with a wheat-germ extract (Promega) in the presence of ^35S-methionine. The mRNA's were divided into approximately 2 μg aliquots, and treated according to the protocols listed for Table 3 below. Treated mRNA was separated from small molecules (such as DMSO and CC-1065) with a Sephadex 50-based NICK column. Translation was carried out in 25 μl of buffer containing the wheat germ translation system; the isolated mRNA; amino acids, including the labelled methionine; and RNAsin, an inhibitor of RNase. The proteins produced were divided into two aliquots. One aliquot was fractionated by SDS-PAGE, followed by autoradiography; and the other was analyzed by scintillation spectrometry. The concentrations of antisense oligomers and CC-1065 in the free-solution chemistries were relatively high compared to the sense target, to optimize duplex formation and drug binding. […] The following pairs were different at the P<0.05 level by Student's t-test (unpaired analysis): 1,5; 2,5; 3,4; 3,5; 4,5.

[2] = test system: DNA sense (SEQ ID NO. 1) / DNA-PO antisense duplex (PO-PO); assay: Duplex strand separation temperature (Tm); type: binding, equine infectious anemia retrovirus; details: for Tm Elevation: highest level of binding obtained
Protocol: (§1) Samples for determining Tm were also obtained by the above procedures. […] Thus the effects of this agent on Tm were carried out with Distamycin in solution with the duplexes tested.
(§2) Tm's were determined on a Gilford 2400 Spectrophotometer set at 260 nm, with a 4-chamber Peltier-based temperature controller. Temperature was ramped linearly at 0.5° C./min. Absorbance data were acquired with a 12-bit A/D converter, and data were processed with Lotus 123W and SigmaPlot software. Tm values were determined from the plots as the midpoint of the thermal transitions.

[3] = test system: DNA sense (SEQ ID NO. 1) / DNA-PS antisense duplex; assay: Duplex strand separation temperature (Tm); type: binding, equine infectious anemia retrovirus; details: for Tm Elevation: highest level of binding obtained
Protocol: as §1, §2

[4] = test system: Oligo dA - Oligo dT; assay: Duplex strand separation temperature (Tm); type: binding; details: for Tm Elevation: highest level of binding obtained
Protocol: as §1, §2

[5] = test system: Poly rA - Oligo dT (PO); assay: Duplex strand separation temperature (Tm); type: binding; details: for Tm Elevation: highest level of binding obtained
Protocol: as §1, §2

[6] = test system: DNA sense (SEQ ID NO. 1) / DNA-MP antisense duplex (PO-MP); assay: Binding of drug to duplex (NACS column, A365/A260); parameters: species or system equine infectious anemia retrovirus
Protocol: (§3) Oligodeoxyribonucleotides were obtained by chemical synthesis through standard techniques on an automated synthesizer located in the Department of Veterinary Microbiology and Parasitology at Louisiana State University. Antisense MP and PS oligonucleotides were obtained from commercial sources, as was synthetic sense RNA. Poly(rA) was obtained from Sigma Chemical Co. CC-1065 was obtained from the Upjohn Company. Oligonucleotides (0.075 μmol-P each) were mixed in 0.36 ml 0.01 M Na cacodylate buffer, pH 7.2, with CC-1065 in dimethyl formamide (0.04 ml), or with dimethylformamide only. (Note that “μmol-P” denotes μmoles of phosphate; i.e., μmoles of nucleotide bases, rather than of oligonucleotides per se.) Incubations of complementary strands, with or without drug, were carried out at 37° C. for 4 hr. In the initial experiments, unbound drug was separated from nucleotide duplexes by ethanol precipitation. Equivalent results were obtained by trapping the oligonucleotides and CC-1065 on NACS-52 columns, and washing first with low-salt buffer and then with buffer containing 1M NaCl. Unbound CC-1065 was completely retained on the column. […] Samples prepared in this manner could be directly used for determination of binding of the drug to the nucleic acid (as measured by the A365/A260 ratio), with the extinction of CC-1065 absorbance at 365 nm taken as 48,000, and the extinction of the nucleic acid absorption at 260 nm based on its composition. Similar approaches were used with the drug U-71,184, with an assumed extinction of 32,000 at 365 nm.
(§4) When methyl phosphonate and synthetic RNA were used, the purities of the crude oligonucleotides were taken to be about 30%, based on the data sheet prepared by the supplier. (The remainder comprised primarily truncated sequences.) Appropriate excess amounts of these agents were included in the reactions to ensure helix formation. The corresponding sense or antisense oligonucleotides were maintained at 0.075 μmol-P in the reaction. […] Unpurified materials were used in these preliminary studies because of the relatively high cost of purified oligoribonucleotides. The majority of the contributions to A260 for these samples should be due to material that was not duplexed.
(§5) Table 1 summarizes binding data obtained from incubations of CC-1065 with nucleotides at greater than stoichiometric levels; the levels used in these experiments were 1 drug molecule/10 nucleotide residues, which is equivalent to 4 drug molecules/20-mer duplex. […] There seemed to be no difference in drug binding between antisense oligonucleotides with a PO and those with a PS backbone. Again, the 5′-AGTTA-3′ sequence on the sense strand was presumably the primary target, and the 3′-AAGTA-5′ on the antisense probe was presumably the secondary target.

[7] = test system: DNA sense (SEQ ID NO. 1) / DNA-PO antisense (SEQ ID NO. 2) duplex (PO-PO); assay: Binding of drug to duplex (NACS column, A365/A260); parameters: species or system equine infectious anemia retrovirus; details: PO-PO; Initial D/N = 0.10
Protocol: as §3, §4, §5

[8] = test system: DNA sense (SEQ ID NO. 1) / DNA-PS antisense duplex (PO-PS); assay: Binding of drug to duplex (NACS column, A365/A260); parameters: species or system equine infectious anemia retrovirus; details: PO-PS; Initial D/N = 0.10
Protocol: as §3, §4, §5

[9] = test system: Oligo(dA)-Oligo(dT); assay: Binding of drug to duplex (NACS column, A365/A260); details: Oligo(dA)-Oligo(dT); Initial D/N = 0.10
Protocol: as §3, §4, §5

[10] = test system: Poly(rA)-Oligo(dT); assay: Binding of drug to duplex (NACS column, A365/A260); details: Poly(rA)-Oligo(dT); Initial D/N = 0.10
Protocol: as §3, §4, §5

[11] = test system: DNA sense (SEQ ID NO. 1) / DNA-MP antisense duplex (PO-MP); assay: Duplex strand separation temperature (Tm); type: binding, equine infectious anemia retrovirus
Protocol: as §1, §2

5′-TGTTGGGTAATAGGGGTTGA-3′ (SEQ ID NO. 4) (chemistry not given here) [antisense]
DPM S-35 ± standard error ([1]; 1.95 μg mRNA, antisense about 3 times mRNA sense, CC-1065 3 times antisense, scintillation spectrometry): 35.225 ± 3.667 DPM | Production of the two protein products (autoradiography) ([1]; SDS-PAGE, autoradiography, data not shown): suppressed production | Effect on translation ([1]; in vitro translation of env mRNA fragment): partially inhibit translation

Cn1cc(NC(=O)c2cc(NC(=O)c3cc(NC=O)cn3C)cn2C)cc1C(=O)NCCC(=N)N [Distamycin, Distamycin A]
Increase in Tm ([2]; PO-PO, Distamycin in solution at D/N = 0.1): 0.7 | Tm with Distamycin, Ave ± S.D. ([2]; PO-PO, Distamycin in solution at D/N = 0.1, in °C (unit assumed)): 68.7 ± 0.6 | Tm Elevation ([2]; PO-PO): 0.7 °C | Increase in Tm ([3]; PS-PS, Distamycin in solution at D/N = 0.1): 1.5 | Tm with Distamycin, Ave ± S.D. ([3]; PS-PS, Distamycin in solution at D/N = 0.1, in °C (unit assumed)): 65.7 ± 1.5 | Tm Elevation ([3]; PS-PS): 1.5 °C | Increase in Tm ([4]; dA-dT, Distamycin in solution at D/N = 0.1): 21.3 | Tm with Distamycin, Ave ± S.D. ([4]; dA-dT, Distamycin in solution at D/N = 0.1, in °C (unit assumed)): 78.3 ± 0.6 | Tm Elevation ([4]; dA-dT): 21.3 °C | Elevation of Tm ([4]; oligo(dA)-oligo(dT)): significant elevation of Tm | Increase in Tm ([5]; rA-dT, Distamycin in solution at D/N = 0.1): 4.0 | Tm with Distamycin, Ave ± S.D. ([5]; rA-dT, Distamycin in solution at D/N = 0.1, in °C (unit assumed)): 57.0 ± 0 | Tm Elevation ([5]; rA-dT): 4.0 °C

Cc1c[nH]c2c1C13CC1CN(C(=O)c1cc4cc(NC(=O)c5cc6ccccc6[nH]5)ccc4[nH]1)C3=CC2=O (stereo not drawn) [U-71.184, U-71,184]
Binding for MP antisense sequences ([6]; MP antisense sequences): about 1 drug molecule/duplex | Bound D/N ([6]; PO-MP, Initial D/N = 0.10): 0.029 ± 0.001 | Bound D/N [7]: 0.026 ± 0.004 | Bound D/N [8]: 0.026 ± 0.001 | Bound D/N [9]: 0.049 ± 0.001 | Bound D/N [10]: 0.023 ± 0.001 | Duplex Strand Separation Temperature ([11]; DNA / DNA-MP, drug-bound duplex (Table 6)): 73.0 ± 1.7 | Tm Elevation ([11]; PO-MP, highest level of binding obtained): 19.5 °C | Duplex Strand Separation Temperature ([2]; DNA / DNA-PO, drug-bound duplex (Table 6)): 75.5 ± 0.7 | Tm Elevation ([2]; PO-PO): 7.5 °C | Duplex Strand Separation Temperature ([3]; DNA / DNA-PS, drug-bound duplex (Table 6)): 73.0 ± 1.4 | Tm Elevation ([3]; PS-PS): 8.6 °C | Duplex Strand Separation Temperature ([4]; Oligo dA / Oligo dT, drug-bound duplex (Table 6)): 86.7 ± 0.6 | Tm Elevation ([4]; dA-dT): 29.7 °C | Duplex Strand Separation Temperature ([5]; Poly rA / Oligo dT (PO), drug-bound duplex (Table 6)): 54.3 ± 0.6 | Stabilization of duplexes ([5]; poly(rA)-oligo(dT)): failure of U-71,184 to stabilize | Tm Elevation ([5]; rA-dT): 1.3 °C
